This is an account of results in patent publication US12473291B2 (priority 2019, dated 2025).

Where two headings read alike, the source gives them in different places.

Test [1] concerns SD rats. The test is described as follows: animal or person. Type of test: in vivo.
Test [2] concerns KM mice. The test is described as follows: animal or person. Type of test: in vivo.
Where [3] appears, read: Rattus norvegicus, SD rats (male, 220-300 g), injection via the tail vein, disappearance of righting reflex, read-out: ED50.
The mark [4] stands for this setting: SD rats, single tail vein injection at 2×ED50, time from disappearance to recovery of righting reflex.
The mark [5] stands for this setting: SD rats, single tail vein injection at 2×ED50, time from recovery of righting reflex to free crawling.
[6] abbreviates: KM mice, single tail vein injection at 2×ED50, time from disappearance to recovery of righting reflex.
The mark [7] stands for this setting: KM mice, single tail vein injection at 2×ED50, time from recovery of righting reflex to free crawling.
The mark [8] stands for this setting: Mus musculus, KM mice (male, 18-22 g), injection via the tail vein, disappearance of righting reflex, read-out: ED50.

On to `COC(=O)C(OC(=O)CC[C@@H]1N=C(c2ccccn2)c2cc(Cl)cc(OC(F)(F)F)c2-n2c(C)cnc21)C1CCCCCCCCC1` (stereo partly shown) [Example 82], for which the ED50 came to 5.8 mg/kg in test [1] (setting [3]) and 29.8 mg/kg in test [2] (setting [8]). Further, the “2ED50 duration” value is 2.15 min in test [1] (setting [4]) and 3.54 min in test [2] (setting [6]). Also, the 2ED50 recovery time is recorded as 2.10 min in test [1] (setting [5]) and 2.13 min in test [2] (setting [7]). The Quality of recovery entry in test [1] (SD rats, tail vein injection) is given as “++ (“++” means 1-3 min)”; in test [2] (KM mice, tail vein injection), “+++ (“+++” means 3-5 min)”.

In the case of `COC1N(C)CC(CC(OC(=O)CC[C@@H]2N=C(c3ccccn3)c3cc(OC(F)(F)F)cc(C)c3-n3c(C)cnc32)OC(=O)OC(C(C)C)C(C)C)CN1C` (stereo partly shown) [Example 83], the ED50 in test [1] (setting [3]) turned out to be 6.1 mg/kg; in test [2] (setting [8]) it was 30.1 mg/kg. Also, the “2ED50 duration” value in test [1] (setting [4]) stood at 2.09 min; in test [2] (setting [6]), 3.26 min. The 2ED50 recovery time in test [1] (setting [5]) was 2.09 min; in test [2] (setting [7]) it was 2.46 min. Besides, the Quality of recovery result in test [1] (SD rats, tail vein injection) was “+++ (“+++” means 3-5 min)”; in test [2] (KM mice, tail vein injection), “+++ (“+++” means 3-5 min)”.

Regarding `C/C=C/C1CC(OCOC(=O)COC(=O)CC[C@@H]2N=C(c3ccccn3)c3cc(Br)c(Cl)cc3-n3c(C)cnc32)C(Br)CC1C(F)(F)F` (stereo partly drawn) [Example 84, 2-(((2-Bromo-5-((E)-propan-1-en-1-yl)-4-(trifluoromethyl)cyclohexyl)oxy)methoxy)-2-oxoethyl-3-((4S)-8-bromo-9-chloro-1-methyl-6-(pyridine-2-yl)-4H-benzo[f]imidazo[1,2-a][1,4]diaza-4-yl)propionate], the ED50 in test [1] (setting [3]) turned out to be 6.23 mg/kg; in test [2] (setting [8]), 28.8 mg/kg. In addition, the “2ED50 duration” value was 2.18 min in test [1] (setting [4]) and 3.16 min in test [2] (setting [6]). In addition, the 2ED50 recovery time is 1.58 min in test [1] (setting [5]) and 2.17 min in test [2] (setting [7]). Also, the Quality of recovery entry in test [1] (SD rats, tail vein injection) is “++ (“++” means 1-3 min)”; in test [2] (KM mice, tail vein injection) it was “+++ (“+++” means 3-5 min)”.

`COC(=O)CC[C@@H]1N=C(c2ccccn2)c2cc(Br)ccc2-n2c(C)cnc21` [Remimazolam, reference compound]: the ED50 in test [1] (SD rats (male, 220-300 g), injection via the tail vein, disappearance of righting reflex) came out at 8.9 mg/kg; in test [2] (KM mice (male, 18-22 g), injection via the tail vein, disappearance of righting reflex), 40 mg/kg. Moreover, the results for the “2ED50 duration” value in test [1] (setting [4]) and in test [2] (setting [6]) were 7.58 min and 8.58 min, respectively. Also, the figures for the 2ED50 recovery time in test [1] (setting [5]) and in test [2] (setting [7]) were 6.46 min and 5.49 min, respectively. Moreover, the Quality of recovery result in test [1] (SD rats, tail vein injection) is on record as “+++++ (“+++++” means >10 min)”; in test [2] (KM mice, tail vein injection), “+++++ (“+++++” means >10 mm)”.

As for “(((((3-Methylbutane-2-yl)oxy)carbonyl)oxy) methyl 3-((4S)-9-bromo-8-fluoro-1-methyl-6- (pyridine-2-yl)-4H-benzo[f]imidazo [1,2-a][1,4]diaza-4-ylpropionate formate [Example 73]”, in test [1] (rat, in vivo), the “2ED50 duration” value is 2.45 min, the 2ED50 recovery time turned out to be 2.44 min, the ED50 was 5.2 mg/kg and the Quality of recovery entry was “++ (key: “+” means <1 mm; “++” means 1-3 min; “+++” means 3-5 min; “++++” means 5-10 min; “+++++” means >10 mm)”. Further, in test [2] (mouse, in vivo), the 2ED50 duration was 3.33 min, the 2ED50 recovery time is listed as 2.38 min, the ED50 is recorded as 26.3 mg/kg and the Quality of recovery entry was “+++ (key: “+” means <1 mm; “++” means 1-3 min; “+++” means 3-5 min; “++++” means 5-10 min; “+++++” means >10 mm)”.
